Assays:
[1] = biological target: T1, Recombinant human carbonic anhydrase IX (Homo sapiens, UniProt Q16790); test: hCA IX inhibition, 4-nitrophenyl acetate (4-NPA) esterase assay; assay type: biochemical; settings: mean ± standard error
T1 construct: purchased Sino Biological Inc, Beijing, China
Method: Carbonic anhydrases are able to catalyze the conversion 4-nitrophenyl acetate (4-NPA) to 4-nitrophenol. […] One × Assay buffer is composed of 15 mmol/L 4-(2-hydroxyethyl)-1-piperazineethanesulfonic acid (HEPES) (pH = 7.4), 0.01% tetraethylene glycol monododecyl ether (BRIJ) and 100 mmol/L NaCl. […] Then, 18 μL of enzyme solution was transferred into 384-well assay plates in triplicate. Stock solutions of the inhibitor (10 mmol/L) were prepared using DMSO as solvent, and then diluted 1:3 with DMSO. […] The normalized data were then fit to a sigmoidal dose-response curve using GraphPad Prism 5.0 software, La Jolla, CA, USA to obtain the IC50. Final enzyme concentration was 5 ng/μL.

[2] = system: CA IX over intracellular CA I; set-up: method as in PMID 25254302; settings: cited from earlier work
[3] = system: CA IX over intracellular CA II; set-up: method as in PMID 25254302; settings: cited from earlier work

Structure (SMILES)	IC50 [1] [nM]	melting point [°C]	selectivity for CA IX over CA I [2] [fold]	selectivity for CA IX over CA II [3] [fold]
NS(=O)(=O)c1ccc(NC(=S)N[C@@H]2O[C@H](CO)[C@@H](O)[C@H](O)[C@H]2NS(=O)(=O)c2cccs2)cc1 [Compound 7r, N-[4-(Aminosulfonyl)phenyl]-N′-[2′-(thiophene-2′-sulfonylamino)-2′-deoxy-β-D-glucopyranosyl]thiourea]	65.8 ± 0.08	172.8 to 174	–	–
NS(=O)(=O)c1ccc(NC(=S)N[C@@H]2O[C@H](CO)[C@@H](O)[C@H](O)[C@H]2NS(=O)(=O)c2cccc(Br)c2)cc1 [Compound 7i, N-[4-(Aminosulfonyl)phenyl]-N′-[2′-(3′-bromobenzenesulfonylamino)-2′-deoxy-β-D-glucopyranosyl]thiourea]	12.6 ± 0.96	172.9 to 174.7	–	–
CC(=O)NC1C(NC(=S)Nc2ccc(S(N)(=O)=O)cc2)OC(CO)C(O)C1O [Compound 9b, N-[4-(Aminosulfonyl)phenyl]-N′-(2′-acetylamino-2′-deoxy-β-D-glucopyranosyl)thiourea]	176 ± 9.45	151.1 to 152.9	–	–
NS(=O)(=O)OCCCCCNS(=O)(=O)[C@@H]1O[C@H](CO)[C@@H](O)[C@H](O)[C@H]1O [Compound A]	–	–	1200	3200
COc1ccc(S(=O)(=O)N[C@@H]2[C@@H](O)[C@H](O)[C@@H](CO)O[C@H]2NC(=S)Nc2ccc(S(N)(=O)=O)cc2)cc1 [Compound 7c, N-[4-(Aminosulfonyl)phenyl]-N′-[2′-(4′-methoxybenzenesulfonylamino)-2′-deoxy-β-D-glucopyranosyl]thiourea]	23.8 ± 0.51	165 to 166.3	–	–
NS(=O)(=O)c1ccc(NC(=S)N[C@@H]2O[C@H](CO)[C@@H](O)[C@H](O)[C@H]2NS(=O)(=O)c2ccc3ccccc3c2)cc1 [Compound 7n, N-[4-(Aminosulfonyl)phenyl]-N′-[2′-(naphthalene-2′-sulfonylamino)-2′-deoxy-β-D-glucopyranosyl]thiourea]	24.78 ± 0.05	182.7 to 184.6	–	–
CC(=O)NC1C(NC(=S)Nc2ccc(S(N)(=O)=O)cc2)OC(COC(C)=O)C(OC(C)=O)C1OC(C)=O [Compound 9a, N-[4-(Aminosulfonyl)phenyl]-N′-(2′-acetylamino-3′,4′,6′-tri-O-acetyl-2′-deoxy-β-D-glucopyranosyl)thiourea]	1290 ± 141	141.8 to 142.9	–	–
Cc1ccc(S(=O)(=O)NC2C(NC(=S)Nc3ccc(S(N)(=O)=O)cc3)OC(CO)C(O)C2O)cc1 [Compound 7a, N-[4-(Aminosulfonyl)phenyl]-N′-[2′-(4′-methylbenzenesulfonylamino)-2′-deoxy-β-D-glucopyranosyl]thiourea]	21.8 ± 3.18	159.5 to 161.2	–	–
NS(=O)(=O)c1ccc(NC(=S)N[C@@H]2O[C@H](CO)[C@@H](O)[C@H](O)[C@H]2NS(=O)(=O)c2ccccc2[N+](=O)[O-])cc1 [Compound 7k, N-[4-(Aminosulfonyl)phenyl]-N′-[2′-(2′-nitrobenzenesulfonylamino)-2′-deoxy-β-D-glucopyranosyl]thiourea]	15.6 ± 0.44	169.7 to 171.7	–	–
NS(=O)(=O)c1ccc(NC(=S)N[C@@H]2O[C@H](CO)[C@@H](O)[C@H](O)[C@H]2NS(=O)(=O)c2cccc([N+](=O)[O-])c2)cc1 [Compound 7l, N-[4-(Aminosulfonyl)phenyl]-N′-[2′-(3′-nitrobenzenesulfonylamino)-2′-deoxy-β-D-glucopyranosyl]thiourea]	18.9 ± 0.33	177.3 to 179.2	–	–
NS(=O)(=O)c1ccc(NC(=S)N[C@@H]2O[C@H](CO)[C@@H](O)[C@H](O)[C@H]2NS(=O)(=O)c2ccc(Cl)cc2)cc1 [Compound 7g, N-[4-(Aminosulfonyl)phenyl]-N′-[2′-(4′-chlorobenzenesulfonylamino)-2′-deoxy-β-D-glucopyranosyl]thiourea]	26.9 ± 0.28	167.2 to 168.8	–	–
CCS(=O)(=O)N[C@@H]1[C@@H](O)[C@H](O)[C@@H](CO)O[C@H]1NC(=S)Nc1ccc(S(N)(=O)=O)cc1 [Compound 7o, N-[4-(Aminosulfonyl)phenyl]-N′-(2′-ethylsulfonylamino-2′-deoxy-β-D-glucopyranosyl)thiourea]	66.9 ± 3.26	164.8 to 166.2	–	–
Cc1ccccc1S(=O)(=O)N[C@@H]1[C@@H](O)[C@H](O)[C@@H](CO)O[C@H]1NC(=S)Nc1ccc(S(N)(=O)=O)cc1 [Compound 7b, N-[4-(Aminosulfonyl)phenyl]-N′-[2′-(2′-methylbenzenesulfonylamino)-2′-deoxy-β-D-glucopyranosyl]thiourea]	21.9 ± 0.37	175.2 to 177.1	–	–
NS(=O)(=O)c1ccc(NC(=S)N[C@@H]2O[C@H](CO)[C@@H](O)[C@H](O)[C@H]2NS(=O)(=O)c2ccc(Br)cc2)cc1 [Compound 7h, N-[4-(Aminosulfonyl)phenyl]-N′-[2′-(4′-bromobenzenesulfonylamino)-2′-deoxy-β-D-glucopyranosyl]thiourea]	21.3 ± 1.29	174.1 to 176	–	–
CCCS(=O)(=O)NC1C(NC(=S)Nc2ccc(S(N)(=O)=O)cc2)OC(CO)C(O)C1O [Compound 7p, N-[4-(Aminosulfonyl)phenyl]-N′-(2′-n-propylsulfonylamino-2′-deoxy-β-D-glucopyranosyl)thiourea]	389 ± 27.7	159.1 to 160.6	–	–
NS(=O)(=O)c1ccc(NC(=S)NC2OC(CO)C(O)C(O)C2NS(=O)(=O)c2ccc(C(F)(F)F)cc2)cc1 [Compound 7f, N-[4-(Aminosulfonyl)phenyl]-N′-[2′-(4′-trifluoromethylbenzenesulfonylamino)-2′-deoxy-β-D-glucopyranosyl]thiourea]	10 ± 0.23	164 to 165.4	–	–
NS(=O)(=O)c1ccc(NC(=S)N[C@@H]2O[C@H](CO)[C@@H](O)[C@H](O)[C@H]2NS(=O)(=O)c2ccc(F)cc2)cc1 [Compound 7d, N-[4-(Aminosulfonyl)phenyl]-N′-[2′-(4′-fluorobenzenesulfonylamino)-2′-deoxy-β-D-glucopyranosyl]thiourea]	25.6 ± 2.15	178 to 179.6	–	–
NS(=O)(=O)c1ccc(NC(=S)N[C@@H]2O[C@H](CO)[C@@H](O)[C@H](O)[C@H]2NS(=O)(=O)c2cc(F)cc(F)c2)cc1 [Compound 7e, N-[4-(Aminosulfonyl)phenyl]-N′-[2′-(3′,5′-difluorobenzenesulfonylamino)-2′-deoxy-β-D-glucopyranosyl]thiourea]	11.5 ± 0.93	164.4 to 165.2	–	–
NS(=O)(=O)c1ccc(NC(=S)N[C@@H]2O[C@H](CO)[C@@H](O)[C@H](O)[C@H]2NS(=O)(=O)c2ccc([N+](=O)[O-])cc2)cc1 [Compound 7j, N-[4-(Aminosulfonyl)phenyl]-N′-[2′-(4′-nitrobenzenesulfonylamino)-2′-deoxy-β-D-glucopyranosyl]thiourea]	25.4 ± 3.8	174.7 to 176	–	–
CN(C)S(=O)(=O)N[C@@H]1[C@@H](O)[C@H](O)[C@@H](CO)O[C@H]1NC(=S)Nc1ccc(S(N)(=O)=O)cc1 [Compound 7q, N-[4-(Aminosulfonyl)phenyl]-N′-[2′-(N′,N′-dimethylsulfonylamino)-2′-deoxy-β-D-glucopyranosyl]thiourea]	72.1 ± 6.15	157.4 to 159.4	–	–
N#Cc1ccc(S(=O)(=O)N[C@@H]2[C@@H](O)[C@H](O)[C@@H](CO)O[C@H]2NC(=S)Nc2ccc(S(N)(=O)=O)cc2)cc1 [Compound 7m, N-[4-(Aminosulfonyl)phenyl]-N′-[2′-(4′-cyanobenzenesulfonylamino)-2′-deoxy-β-D-glucopyranosyl]thiourea]	21.9 ± 0.49	169 to 170.6	–	–

From article PMC6154466, “Design, Synthesis, Molecular Docking Analysis, and Carbonic Anhydrase IX Inhibitory Evaluations of Novel N-Substituted-β-D-Glucosamine Derivatives that Incorporate Benzenesulfonamides” (Molecules : A Journal of Synthetic Chemistry and Natural …, 2017)
